Results on 18 compounds are retold here after patent publication EP4660184A1 (Eurofarma Laboratórios S.A., priority 2023, dated 2024).

Assay [1] deals with T1, human sodium channels Nav 1.8 (Homo sapiens, UniProt Q9Y5Y9).
T1 construct: expressed in transfected cells
As to the kind of experiment: Automated whole-cell voltage-clamp (ScreenPatch 384P) sodium current block, Nav 1.8. In kind it is cell-based. The conditions noted are these: CHO cells stably expressing human Nav 1.8; inactivation step -40 mV for 8 seconds, test step 10 mV (TP1A); exposure at least five minutes; room temperature; mean if two or more assays; read-out: Nav1.8 IC50. Here is the method:
(§1) Biological assays were performed on Chinese hamster ovary (CHO) cells that express human sodium channels Nav 1.8 or Nav 1.7 in a stable manner.
(§2) The experimental protocol voltage-clamp using the whole cell configuration was established on the automated ScreenPatch® 384P platform (SP384PE, Nanion Technologies, Livingston, NJ) and the results were recorded with a Nanion 384-well Patch Clamp chip (NPC) (Nanion Technologies, Livingston, NJ).
(§3) Formula I compounds were diluted in eight concentrations in the extracellular solution composed of saline saline solution, buffered with HEPES (mM): NaCl, 137; KCl, 4; CaCl2, 3,8; MgCl2, 1; HEPES, 10; Glucose, 10; pH 7.4. The […], 50; CsF, 90; MgCl2, 5; EGTA, 5; HEPES, 10; pH 7.2. The duration of exposure of each compound with cells expressing Nav 1.7 or Nav 1.8 was at least five minutes and the assays were performed at room temperature.
(§4) The measurements of the sodium currents of Nav 1.8 and Nav 1.7 were obtained using the voltage protocol described below.
(§5) A holding voltage of -100 mV was established followed by an inactivation voltage step at -40 mV for 8 seconds, followed by a step of -100 mV for 20 ms, followed by a 20 ms step for 10 mV for Nav 1.8 or 0 mV for Nav 1.7 (TP1A) before returning to the holding voltage of -100 mV.
(§6) The protocol was repeated at a frequency of 0.05 Hz and the amplitude of the current was quantified throughout the recording of the TP1A phase. The variation in the amplitude of the peak current was evaluated according to the formula described below, after exposing the cells expressing the channels to each concentration of the different compounds: % Block = (1−(ITP1A,molecule/ITP1A,basal)×100%, [formula] wherein ITP1A,basal and ITP1A,molecule represent the peaks of sodium current input into TP1A before exposure to the compound and in the presence of the compound, respectively.
(§7) Data were obtained by nonlinear regression (nonlinear least squares) with XLfit for Excel (Microsoft, Redmond, WA).
(§8) The compounds were tested in at least one assay to obtain the value of CI50. For compounds that were tested in two or more assays, the results are described as the mean of the CI50 values.

Assay [2] concerns the target T2, human sodium channels Nav 1.7 (Homo sapiens, UniProt Q15858).
T2 construct: expressed in transfected cells
As to the kind of experiment: Automated whole-cell voltage-clamp (ScreenPatch 384P) sodium current block, Nav 1.7. In kind it is cell-based. The conditions noted are these: CHO cells stably expressing human Nav 1.7; inactivation step -40 mV for 8 seconds, test step 0 mV (TP1A); exposure at least five minutes; room temperature; mean if two or more assays; read-out: Nav1.7 IC50. How it is done: as §1, §2, §3, §4, §5, §6, §7, §8

T2 sequence (Q15858 whole entry): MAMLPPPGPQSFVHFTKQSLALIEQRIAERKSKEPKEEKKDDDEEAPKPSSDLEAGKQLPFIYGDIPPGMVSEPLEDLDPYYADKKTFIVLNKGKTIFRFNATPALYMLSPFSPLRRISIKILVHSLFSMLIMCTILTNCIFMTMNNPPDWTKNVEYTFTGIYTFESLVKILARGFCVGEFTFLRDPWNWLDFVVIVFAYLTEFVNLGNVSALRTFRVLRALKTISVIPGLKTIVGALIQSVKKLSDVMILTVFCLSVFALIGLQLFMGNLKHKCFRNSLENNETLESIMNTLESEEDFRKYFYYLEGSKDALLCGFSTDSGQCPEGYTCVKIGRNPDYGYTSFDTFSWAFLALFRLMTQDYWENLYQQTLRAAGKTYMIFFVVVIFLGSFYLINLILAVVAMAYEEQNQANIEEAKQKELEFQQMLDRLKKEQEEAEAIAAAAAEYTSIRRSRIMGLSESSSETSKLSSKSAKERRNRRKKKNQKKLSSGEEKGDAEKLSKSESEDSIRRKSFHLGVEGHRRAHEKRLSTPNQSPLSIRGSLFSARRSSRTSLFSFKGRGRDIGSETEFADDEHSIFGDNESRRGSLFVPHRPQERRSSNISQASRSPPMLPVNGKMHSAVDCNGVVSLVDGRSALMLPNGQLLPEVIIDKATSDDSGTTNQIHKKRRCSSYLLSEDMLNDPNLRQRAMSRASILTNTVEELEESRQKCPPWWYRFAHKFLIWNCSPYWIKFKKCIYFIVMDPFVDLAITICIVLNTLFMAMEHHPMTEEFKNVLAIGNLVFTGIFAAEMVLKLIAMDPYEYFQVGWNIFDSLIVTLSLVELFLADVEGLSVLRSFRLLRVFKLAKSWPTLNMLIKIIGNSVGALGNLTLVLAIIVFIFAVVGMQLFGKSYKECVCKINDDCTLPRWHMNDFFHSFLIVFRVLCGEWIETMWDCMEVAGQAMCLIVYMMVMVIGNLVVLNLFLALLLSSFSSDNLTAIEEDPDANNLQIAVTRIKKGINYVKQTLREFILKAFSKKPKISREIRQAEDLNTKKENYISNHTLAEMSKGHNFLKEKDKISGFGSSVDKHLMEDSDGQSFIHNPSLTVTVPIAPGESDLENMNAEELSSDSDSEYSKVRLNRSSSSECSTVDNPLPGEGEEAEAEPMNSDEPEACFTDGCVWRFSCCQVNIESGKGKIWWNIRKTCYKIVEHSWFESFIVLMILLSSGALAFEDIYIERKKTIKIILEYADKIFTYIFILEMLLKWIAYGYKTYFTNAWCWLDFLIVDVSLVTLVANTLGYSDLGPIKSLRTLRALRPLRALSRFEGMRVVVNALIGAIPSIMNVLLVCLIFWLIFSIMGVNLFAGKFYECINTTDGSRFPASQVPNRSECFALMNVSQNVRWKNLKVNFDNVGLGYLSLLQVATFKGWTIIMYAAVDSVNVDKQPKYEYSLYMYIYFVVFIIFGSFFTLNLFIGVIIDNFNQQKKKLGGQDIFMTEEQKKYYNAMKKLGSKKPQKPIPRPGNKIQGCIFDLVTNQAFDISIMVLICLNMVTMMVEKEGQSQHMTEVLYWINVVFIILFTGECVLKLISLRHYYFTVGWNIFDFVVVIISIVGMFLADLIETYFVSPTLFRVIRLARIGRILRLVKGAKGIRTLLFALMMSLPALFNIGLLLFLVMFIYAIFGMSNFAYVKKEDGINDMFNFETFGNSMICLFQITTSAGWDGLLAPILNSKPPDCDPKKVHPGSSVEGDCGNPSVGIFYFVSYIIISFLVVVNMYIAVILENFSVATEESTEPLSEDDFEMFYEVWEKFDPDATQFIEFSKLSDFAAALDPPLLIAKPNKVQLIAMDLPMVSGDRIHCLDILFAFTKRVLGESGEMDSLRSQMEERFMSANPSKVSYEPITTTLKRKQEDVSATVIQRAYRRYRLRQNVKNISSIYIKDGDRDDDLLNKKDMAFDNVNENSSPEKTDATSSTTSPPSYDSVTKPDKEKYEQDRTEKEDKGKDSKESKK
T1 sequence (Q9Y5Y9 whole entry): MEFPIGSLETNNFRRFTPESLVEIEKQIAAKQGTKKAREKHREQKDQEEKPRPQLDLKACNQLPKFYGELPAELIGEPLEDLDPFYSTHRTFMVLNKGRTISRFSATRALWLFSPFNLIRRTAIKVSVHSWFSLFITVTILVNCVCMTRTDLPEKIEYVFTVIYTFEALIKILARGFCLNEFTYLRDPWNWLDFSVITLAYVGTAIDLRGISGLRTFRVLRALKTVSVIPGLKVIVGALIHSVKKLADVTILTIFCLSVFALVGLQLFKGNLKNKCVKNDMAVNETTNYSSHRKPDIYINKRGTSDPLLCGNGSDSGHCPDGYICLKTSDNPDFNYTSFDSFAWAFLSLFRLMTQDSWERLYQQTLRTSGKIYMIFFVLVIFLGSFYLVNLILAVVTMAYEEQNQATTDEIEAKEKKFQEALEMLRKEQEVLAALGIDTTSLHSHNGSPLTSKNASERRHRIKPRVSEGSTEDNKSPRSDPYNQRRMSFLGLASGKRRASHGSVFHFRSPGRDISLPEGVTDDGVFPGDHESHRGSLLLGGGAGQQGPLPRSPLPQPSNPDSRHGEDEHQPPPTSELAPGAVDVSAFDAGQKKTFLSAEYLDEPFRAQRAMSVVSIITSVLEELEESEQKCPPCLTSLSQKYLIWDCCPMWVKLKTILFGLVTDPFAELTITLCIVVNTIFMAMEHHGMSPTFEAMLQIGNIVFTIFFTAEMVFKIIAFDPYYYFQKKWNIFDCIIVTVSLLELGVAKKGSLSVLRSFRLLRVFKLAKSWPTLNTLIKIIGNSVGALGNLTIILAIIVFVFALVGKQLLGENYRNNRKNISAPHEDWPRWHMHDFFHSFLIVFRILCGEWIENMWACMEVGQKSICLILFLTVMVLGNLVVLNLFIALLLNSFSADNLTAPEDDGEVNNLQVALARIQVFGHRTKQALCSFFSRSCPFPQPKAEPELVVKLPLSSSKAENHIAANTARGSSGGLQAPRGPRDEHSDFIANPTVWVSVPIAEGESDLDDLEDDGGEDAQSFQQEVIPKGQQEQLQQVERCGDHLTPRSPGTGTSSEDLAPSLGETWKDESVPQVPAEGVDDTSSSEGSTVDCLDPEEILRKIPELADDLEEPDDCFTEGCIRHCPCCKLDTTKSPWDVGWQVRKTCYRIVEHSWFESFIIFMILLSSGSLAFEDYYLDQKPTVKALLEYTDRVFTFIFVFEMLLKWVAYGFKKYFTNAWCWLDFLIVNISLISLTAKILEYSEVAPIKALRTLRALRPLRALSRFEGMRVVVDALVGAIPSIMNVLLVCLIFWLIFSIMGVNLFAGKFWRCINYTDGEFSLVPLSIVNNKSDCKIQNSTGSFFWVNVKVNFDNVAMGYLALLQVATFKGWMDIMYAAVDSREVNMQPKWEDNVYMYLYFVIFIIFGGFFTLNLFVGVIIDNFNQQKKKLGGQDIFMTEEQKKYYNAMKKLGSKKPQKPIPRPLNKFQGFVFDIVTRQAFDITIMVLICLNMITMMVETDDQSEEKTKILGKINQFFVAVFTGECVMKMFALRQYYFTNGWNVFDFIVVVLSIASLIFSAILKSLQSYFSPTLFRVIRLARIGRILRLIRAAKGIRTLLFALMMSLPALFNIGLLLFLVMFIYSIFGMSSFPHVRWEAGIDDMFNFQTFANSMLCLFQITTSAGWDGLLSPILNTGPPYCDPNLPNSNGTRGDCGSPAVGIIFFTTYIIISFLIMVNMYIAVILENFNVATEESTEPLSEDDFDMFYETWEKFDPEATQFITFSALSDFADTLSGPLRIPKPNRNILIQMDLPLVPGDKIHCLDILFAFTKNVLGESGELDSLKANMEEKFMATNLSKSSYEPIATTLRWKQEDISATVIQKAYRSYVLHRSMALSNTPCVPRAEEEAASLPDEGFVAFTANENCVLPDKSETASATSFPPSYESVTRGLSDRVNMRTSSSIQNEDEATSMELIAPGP

For orientation: IC50 means the midpoint of a concentration-inhibition curve. On to `CCOc1ccc(-c2cncc(C(=O)NOCc3cc(OC)ccc3O)n2)cn1` [Compound 44, 6-(6-ethoxypyridine-3-yl)-N-((2-hydroxy-5-methoxybenzyl)oxy)pyrazine-2-carboxamide], for which the IC50 in assay [1] and in assay [2] was above 1000 nM throughout.

With `CCOc1ccc(-c2nccc(C(=O)NOCc3cc(OC)cnc3F)n2)cn1` [Compound 110], the values for the IC50 in assay [1] and in assay [2] were below 500 nM and 500 to 1000 nM, respectively.

`O=C(NOCc1ccncc1)c1cncc(-c2ccc(OC(F)(F)F)nc2)n1` [Compound 75]: the 50% inhibitory concentration (IC50) in assay [1] and in assay [2] was below 500 nM in each case.

For the compound `[2H]C([2H])([2H])Oc1ccc(F)c(CONC(=O)c2cncc(-c3ccc(OC(F)F)nc3)n2)c1` [Compound 83], the IC50 in assay [1] and in assay [2] was above 1000 nM in each case.

As for `CCOc1ccc(-c2cncc(C(=O)NOCc3cc(OC)ccc3C3CC3)n2)cc1` [Compound 15, N-((2-cyclopropyl-5-methoxybenzyl)oxy)-6-(4-ethoxyphenyl)pyrazine-2-carboxamide], the half-inhibitory concentration (IC50) in assay [1] and in assay [2] was below 500 nM each time.

Take `COc1cccc(CONC(=O)c2cncc(-c3ccc(OC(F)(F)F)nc3)n2)c1` [Compound 72]: the IC50 in assay [1] and in assay [2] was below 500 nM each time.

Regarding `COc1ccc(F)c(CONC(=O)c2cncc(-c3ccc(OC4CNC4)cc3)n2)c1` [Compound 22, 6-(4-(azetidin-3-yloxy)phenyl)-N-((2-fluoro-5-methoxybenzyl)oxy)pyrazine-2-carboxamide], the IC50 in assay [1] and in assay [2] was above 1000 nM in each case.

Take `CCOc1ccc(-c2nccc(C(=O)NOCc3cc(OC)ccc3F)n2)cn1` [Compound 109]: the results for the IC50 in assay [1] and in assay [2] were below 500 nM and above 1000 nM, respectively.

As for `COc1ccc(F)c(CONC(=O)c2cnc(N)c(-c3ccc(OC(F)F)nc3)n2)c1` [Compound 122], the IC50 in assay [1] and in assay [2] was above 1000 nM each time.

Consider `CCOc1ccc(-c2cncc(C(=O)NOCc3cc(OC)cc(OC)c3)n2)cc1` [Compound 20, N-((3,5-dimethoxybenzyl)oxy)-6-(4-ethoxyphenyl)pyrazine-2-carboxamide], for which the IC50 in assay [1] and in assay [2] was above 1000 nM throughout.

As to `COc1ccc(F)c(CONC(=O)c2cncc(-c3ccc(OC(C)C)nc3)n2)c1` [Compound 31, N-((2-fluoro-5-methoxybenzyl)oxy)-6-(6-isopropoxypyridine-3-yl)pyrazine-2-carboxamide], the IC50 in assay [1] was 500 to 1000 nM; in assay [2], above 1000 nM.

Turning to `COc1cncc(CONC(=O)c2cncc(-c3ccc(OC(F)F)cc3)n2)c1` [Compound 28, 6-(4-(difluoromethoxy)phenyl)-N-((5-methoxypyridine-3-yl)methoxy)pyrazine-2-carboxamide], the IC50 in assay [1] was below 500 nM; in assay [2] it was above 1000 nM.

Turning to `CCOc1ccc(-c2cncc(C(=O)NOCc3cc(OC)cnc3C)n2)cc1` [Compound 18, 6-(4-ethoxyphenyl)-N-((5-methoxy-2-methylpyridine-3-yl)methoxy)pyrazine-2-carboxamide], the 50% inhibitory concentration (IC50) in assay [1] was below 500 nM; in assay [2], 500 to 1000 nM.

In the case of `CCOc1ccc(-c2cncc(C(=O)NOCc3cn(C(C)C)cn3)n2)cn1` [Compound 70], the IC50 in assay [1] is below 500 nM; in assay [2], 500 to 1000 nM.

Turning to `CCOc1ccc(-c2cncc(C(=O)NOCc3ccccc3O)n2)cn1` [Compound 34, 6-(6-ethoxypyridine-3-yl)-N-((2-hydroxybenzyl)oxy)pyrazine-2-carboxamide], the 50% inhibitory concentration (IC50) in assay [1] and in assay [2] was above 1000 nM in each case.

Turning to `CCOc1ccc(-c2cnc(N)c(C(=O)NOCc3cc(OC)ccc3F)n2)cn1` [Compound 103], the IC50 in assay [1] was 500 to 1000 nM; in assay [2], above 1000 nM.

For the compound `CCOc1ccc(-c2cncc(C(=O)NOCc3cc(OC)ccc3F)n2)c(O)c1` [Compound 85], the concentration for half-maximal inhibition (IC50) in assay [1] and in assay [2] was above 1000 nM in each case.

As for `COc1ccc(F)c(CONC(=O)c2nc(-c3ccc(OC(F)F)nc3)cnc2F)c1` [Compound 123], the IC50 in assay [1] and in assay [2] was above 1000 nM each time.
